The nature of one series: in vitro. As to conditions: human, HEK293 cells.
The target in a further series is T1, human HDAC3/NCOR1 (Homo sapiens, UniProt O15379).
T1 construct: purchased ENZO Life Sciences AG (Lausen, CH)
The series is described as follows: In vitro HDAC3 inhibition assay, fluorogenic p53 peptide Ac-RHKK(Acetyl)-AMC. Format: biochemical. The following applies: for IC50: 3 nM HDAC3, 20 µM substrate, 30 min, 37 °C; for inhibition at 1 µM: read-out: HDAC3 % inhibition @ 1 µM. As to the method:
(§1) Recombinant human HDAC1, HDAC2, and HDAC3/NCOR1 were purchased from ENZO Life Sciences AG (Lausen, CH). Recombinant human HDAC 4, HDAC5, HDAC7, HDAC9 and HDAC11 were produced by Barinka lab in Prague, as described before. Recombinant human HDAC8 was produced by Romier et al. (IGBMC, Univ. Strasbourg), as described in [55].
(§2) The in vitro testing on recombinant HDACs 1-3 were performed with a fluorogenic peptide derived from p53 (Ac-RHKK(Acetyl)-AMC). The measurements were performed in an assay buffer (50 mM Hepes, 150 mM NaCl, 5 mM MgCl2, 1 mM TCEP and 0.2 mg/mL BSA, pH 7.4 adjusted with NaOH) at 37 °C. Inhibitors at different concentrations were incubated with 10 nM HDAC1, 3 nM HDAC2 or 3 nM HDAC3 (final concentration) for at least 5 min. The reaction was started with the addition of the fluorogenic substrate (20 µM final concentration) and incubated for 30 min for HDAC2 and HDAC3 and 90 min for HDAC1. The reaction was stopped with a solution of 1 mg/mL trypsin and 20 µM SAHA in 1 mM HCl and incubated for 1 h at 37 °C. […] The received fluorescence intensities were normalized with uninhibited reaction as 100% and the reaction without enzyme as 0%. A nonlinear regression analysis was done to determine the IC50 value.

Another series addresses T2, human HDAC2 (Homo sapiens, UniProt Q92769).
T2 construct: purchased ENZO Life Sciences AG (Lausen, CH)
The series is described as follows: In vitro HDAC2 inhibition assay, fluorogenic p53 peptide Ac-RHKK(Acetyl)-AMC. The series is classed as biochemical. As to conditions: for IC50: 3 nM HDAC2, 20 µM substrate, 30 min, 37 °C; for inhibition at 1 µM: read-out: HDAC2 % inhibition @ 1 µM. As to the method: as §1, §2

For a further series, the target named is T3, human HDAC1 (Homo sapiens, UniProt Q13547).
T3 construct: purchased ENZO Life Sciences AG (Lausen, CH)
The series is described as follows: In vitro HDAC1 inhibition assay, fluorogenic p53 peptide Ac-RHKK(Acetyl)-AMC. The following applies: for IC50: 10 nM HDAC1, 20 µM substrate, 90 min, 37 °C; for inhibition at 1 µM: read-out: HDAC1 % inhibition @ 1 µM. The series is classed as biochemical. As to the method:
as §1, §2

Each structure is given as a SMILES string.

T3 sequence (Q13547 whole entry): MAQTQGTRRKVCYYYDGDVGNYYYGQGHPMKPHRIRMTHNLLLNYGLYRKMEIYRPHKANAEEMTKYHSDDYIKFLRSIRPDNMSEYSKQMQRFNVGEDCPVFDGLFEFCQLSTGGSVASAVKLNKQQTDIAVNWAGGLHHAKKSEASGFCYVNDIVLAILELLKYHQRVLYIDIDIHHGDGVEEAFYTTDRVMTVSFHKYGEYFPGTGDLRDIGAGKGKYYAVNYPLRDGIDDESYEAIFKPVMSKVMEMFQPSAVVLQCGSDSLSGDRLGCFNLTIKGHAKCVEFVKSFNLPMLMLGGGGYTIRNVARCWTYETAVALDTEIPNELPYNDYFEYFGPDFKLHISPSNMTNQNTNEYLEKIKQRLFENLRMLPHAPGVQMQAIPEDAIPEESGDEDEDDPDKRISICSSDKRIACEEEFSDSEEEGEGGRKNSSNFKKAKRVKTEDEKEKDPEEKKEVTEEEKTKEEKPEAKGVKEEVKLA
T1 sequence (O15379 whole entry): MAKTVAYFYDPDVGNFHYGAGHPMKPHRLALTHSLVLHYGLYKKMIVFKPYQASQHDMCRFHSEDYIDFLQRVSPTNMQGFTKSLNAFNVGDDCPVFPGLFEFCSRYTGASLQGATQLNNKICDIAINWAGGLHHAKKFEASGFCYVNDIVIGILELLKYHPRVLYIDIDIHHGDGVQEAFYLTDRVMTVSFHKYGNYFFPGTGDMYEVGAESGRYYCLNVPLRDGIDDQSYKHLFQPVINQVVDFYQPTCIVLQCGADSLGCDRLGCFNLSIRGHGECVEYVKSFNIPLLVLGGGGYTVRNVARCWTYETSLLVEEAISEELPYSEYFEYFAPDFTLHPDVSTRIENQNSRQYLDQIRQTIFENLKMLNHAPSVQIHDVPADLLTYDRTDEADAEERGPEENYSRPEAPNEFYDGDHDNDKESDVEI
T1 sequence (O75376 395-489 partner limits assumed): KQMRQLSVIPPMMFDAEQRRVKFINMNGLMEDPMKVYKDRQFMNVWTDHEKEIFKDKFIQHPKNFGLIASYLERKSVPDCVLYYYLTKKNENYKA
T2 sequence (Q92769 whole entry): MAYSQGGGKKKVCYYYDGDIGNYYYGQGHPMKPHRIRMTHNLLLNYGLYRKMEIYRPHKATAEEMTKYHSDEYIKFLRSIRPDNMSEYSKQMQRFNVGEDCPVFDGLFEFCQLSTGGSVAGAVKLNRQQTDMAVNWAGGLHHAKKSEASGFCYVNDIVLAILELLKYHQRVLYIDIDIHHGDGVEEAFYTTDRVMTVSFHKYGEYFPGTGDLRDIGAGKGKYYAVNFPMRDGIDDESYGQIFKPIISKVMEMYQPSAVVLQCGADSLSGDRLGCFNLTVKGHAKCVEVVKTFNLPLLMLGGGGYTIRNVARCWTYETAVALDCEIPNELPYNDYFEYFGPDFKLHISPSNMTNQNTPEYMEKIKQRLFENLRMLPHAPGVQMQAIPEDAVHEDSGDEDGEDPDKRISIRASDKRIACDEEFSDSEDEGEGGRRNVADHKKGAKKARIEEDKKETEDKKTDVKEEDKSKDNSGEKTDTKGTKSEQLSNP

In the series “in vitro”, `Cn1cc(CCN2CCN(c3cnc(C(=O)Nc4ccc(F)cc4N)cn3)CC2)c2ccccc21` [19m, N-(2-Amino-4-fluorophenyl)-5-(4-(2-(1-methyl-1H-indol-3-yl)ethyl)piperazin-1-yl)pyrazine-2-carboxamide] had a viability at 48 h, 50 µM of 52.5%. Besides, the IC50 turned out to be 0.4 ± 0.02 µM against human HDAC3/NCOR1, 1.48 ± 0.19 µM at human HDAC2 and 0.4 ± 0.06 µM against human HDAC1.
Take `CN1CCN(c2cnc(C(=O)Nc3ccccc3N)cn2)CC1` [19o, N-(2-aminophenyl)-5-(4-methylpiperazin-1-yl)pyrazine-2-carboxamide]: the inhibition at 1 µM stood at 30% on human HDAC3/NCOR1, 15% at human HDAC2 and 27% at human HDAC1.
Regarding `Nc1cc(F)c(F)cc1NC(=O)c1cnc(N2CCNCC2)cn1` [25b, N-(2-amino-4,5-difluorophenyl)-5-(piperazin-1-yl)pyrazine-2-carboxamide], in “in vitro”, the viability at 48 h, 50 µM is 83.7%. The results for the IC50 at human HDAC3/NCOR1, at human HDAC2 and at human HDAC1 were 1.6 ± 0.1 µM, 4.2 ± 0.1 µM and 4.3 ± 0.3 µM, respectively.
In the case of `CN1CCN(c2cnc(C(=O)Nc3cc(-c4ccccc4F)ccc3N)cn2)CC1` [29d, N-(4-amino-2’-fluoro-[1,1’-biphenyl]-3-yl)-5-(4-methylpiperazin-1-yl)pyrazine-2-carboxamide], the viability at 48 h, 50 µM in the series “in vitro” worked out at 54%. Besides, the results for the IC50 at human HDAC3/NCOR1, on human HDAC2 and at human HDAC1 were 12 ± 1 µM, 0.26 ± 0.07 µM and 0.18 ± 0.01 µM, respectively.
Regarding `COc1ccc(NC(=O)c2cnc(N3CCNCC3)cn2)c(N)c1` [27c, N-(2-amino-4-methoxyphenyl)-5-(piperazin-1-yl)pyrazine-2-carboxamide], the results for the IC50 on human HDAC3/NCOR1, at human HDAC2 and against human HDAC1 were 14 ± 1 µM, 14 ± 2 µM and 20 ± 1 µM, respectively.
`Nc1cc(F)c(F)cc1NC(=O)c1cnc(N2CCN(CCc3c[nH]c4ccccc34)CC2)cn1` [19h]: in the series “in vitro”, the viability at 48 h, 50 µM came out at 54.5%. Also, the IC50 against human HDAC3/NCOR1 was determined as 0.57 ± 0.02 µM; at human HDAC2, 0.74 ± 0.03 µM; at human HDAC1, 0.81 ± 0.07 µM.
Consider `CN1CCN(c2ncc(C(=O)Nc3ccccc3N)cn2)CC1` [19n, N-(2-aminophenyl)-2-(4-methylpiperazin-1-yl)pyrimidine-5-carboxamide], for which the figures for the inhibition at 1 µM at human HDAC3/NCOR1, on human HDAC2 and on human HDAC1 were 13%, 7% and 5%, respectively.
Consider `Cn1cc(CN2CCN(c3cnc(C(=O)Nc4cc(F)c(F)cc4N)cn3)CC2)c2ccccc21` [19l], for which the viability at 48 h, 50 µM in “in vitro” was found to be 20.1%. Further, the IC50 worked out at 0.81 ± 0.05 µM at human HDAC3/NCOR1, 0.56 ± 0.02 µM at human HDAC2 and 0.29 ± 0.03 µM against human HDAC1.
In turn, `Nc1ccc(-c2ccc(F)cc2)cc1NC(=O)c1cnc(N2CCNCC2)cn1` [29c, N-(4-amino-4’-fluoro-[1,1’-biphenyl]-3-yl)-5-(piperazin-1-yl)pyrazine-2-carbox-amide] returned a viability at 48 h, 50 µM in the series “in vitro” of 2.2%. The IC50 against human HDAC3/NCOR1 came out at 6.7 ± 0.5 µM; against human HDAC2, 0.34 ± 0.01 µM; on human HDAC1 it was 0.16 ± 0.03 µM.
In the case of `Nc1ccc(C(F)(F)F)cc1NC(=O)c1cnc(N2CCNCC2)cn1` [27a, N-(2-amino-5-(trifluoromethyl)phenyl)-5-(piperazin-1-yl)pyrazine-2-carboxamide], the inhibition at 1 µM on human HDAC3/NCOR1, at human HDAC2 and on human HDAC1 was 0% in each case.
As for `Cc1ccc(NC(=O)c2cnc(N3CCNCC3)cn2)c(N)c1` [27b, N-(2-amino-4-methylphenyl)-5-(piperazin-1-yl)pyrazine-2-carboxamide], the inhibition at 1 µM at human HDAC3/NCOR1, at human HDAC2 and on human HDAC1 was 0% in each case.
Compound `Nc1cc(Cl)ccc1NC(=O)c1cnc(N2CCNCC2)cn1` [25a, N-(2-amino-4-chlorophenyl)-5-(piperazin-1-yl)pyrazine-2-carboxamide] returned an IC50 at human HDAC3/NCOR1 of 8.7 ± 0.4 µM. Further, the inhibition at 1 µM on human HDAC2 and at human HDAC1 was 0% in each case.

The values above are taken from article PMC8745332, “Synthesis, Molecular Docking and Biological Characterization of Pyrazine Linked 2-Aminobenzamides as New Class I Selective Histone Deacetylase (HDAC) Inhibitors with Anti-Leukemic Activity” (International Journal of Molecular Sciences, 2021).
